Test results as given in US7655665B2, “Nitromethylene derivatives and their use” (East China University of Science and Technology, priority 2004, dated 2010).

Legend:
[1] = system: Nilaparvata lugens; assay: Insecticidal activity against Nilaparvata lugens (planthopper) by spraying; type: in vivo; settings: 500 ppm; spraying 2 ml; counted after 24 hours
Description: (§1) Test on the insecticidal activity of Compound Nos. 1-227
Planthopper, which belongs to Homoptera and has a piercing-sucking mouthpart, is a common insect for agricultural plant. Nilaparvata lugens was tested by the way of spraying.
Test method: the test compound was exactly formulated into a solution having a certain concentration and clean water was used as a blank control. Each process was repeated for 3 tumblers (3 times). 2 ml of solution was sprayed uniformly to each tumbler by a mini manual sprayer. 10 Nilaparvata lugens were introduced to every sink 6 hours before spraying. Three series of experiments were conducted. The number of killed Nilaparvata lugens was counted after 24 hours to calculate the mortality.

[2] = system: Aphis craccivoral; assay: Insecticidal activity against Aphis craccivoral by immersing (dipping aphids on bean sprout); type: in vivo; settings: 500 ppm; immersing (dipped 5 seconds); counted after 24 hours; 23° C.
Description: as §1
Aphis, which belongs to Homoptera and has a piercing-sucking mouthpart, is a common insect for agricultural plant. Aphis craccivoral was tested by the way of immersing.
Test method: exactly weighed various samples were independently added to N,N-dimethylformamide to form a 10 g/L stock solution. The mixture was diluted with 0.2 mL/L aqueous Triton X-100 solution to a concentration of 500 ug/mL. After stably sucking on bean sprout, the adult aphis without wings together with bean sprout was dipped into 500 ug/mL dilution, taken out after 5 seconds, and the excess dilution was sucked out with bibulous paper and the adult aphis without wings was incubated in clean vessel at a constant temperature of 23° C. Each concentration was repeated for 3 times and the control group contained 0.2 mL/L aqueous Triton X-100 solution. The number of killed aphis was counted after 24 hours to calculate the mortality.

| Compound | mortality (%) (500 ppm) Nilaparvata lugens [1] | mortality (%) (500 ppm) Aphis [2] |
| --- | --- | --- |
| COCCOC1CCC([N+](=O)[O-])=C2N(CC3CCOC3)CCN21 (centres unmarked) [Compound 66] | 100% | 100% |
| CCOCCOC1CCC([N+](=O)[O-])=C2N(CC3CCOC3)CCN21 (centres unmarked) [Compound 67] | 100% | 100% |
| CC1CC(O)N2CCN(CC3CCOC3)C2=C1[N+](=O)[O-] (centres unmarked) [Compound 68] | 7% | 2% |
| CC1CC(O)N2CCN(Cc3ccc(Cl)nc3)C2=C1[N+](=O)[O-] (centres unmarked) [Compound 69] | 56% | 45% |
| CC1CC(O)N2CCN(Cc3cnc(Cl)s3)C2=C1[N+](=O)[O-] (centres unmarked) [Compound 70] | 12% | 33% |
| O=[N+]([O-])C1=C2N(Cc3ccc(Cl)nc3)CCCN2C(O)CC1 (centres unmarked) [Compound 71] | 0% | 6% |
| COC1CCC([N+](=O)[O-])=C2N(Cc3ccc(Cl)nc3)CCCN21 (centres unmarked) [Compound 72] | 100% | 35% |
| CCOC1CCC([N+](=O)[O-])=C2N(Cc3ccc(Cl)nc3)CCCN21 (centres unmarked) [Compound 73] | 56% | 34% |
| O=[N+]([O-])C1=C2N(Cc3ccc(Cl)nc3)CCCN2C(OCCCl)CC1 (centres unmarked) [Compound 74] | 13% | 12% |
| O=[N+]([O-])C1=C2N(Cc3ccc(Cl)nc3)CCCN2C(OCC(F)(F)F)CC1 (centres unmarked) [Compound 75] | 100% | 88% |
| CCCOC1CCC([N+](=O)[O-])=C2N(Cc3ccc(Cl)nc3)CCCN21 (centres unmarked) [Compound 76] | 100% | 100% |
| CC(C)OC1CCC([N+](=O)[O-])=C2N(Cc3ccc(Cl)nc3)CCCN21 (centres unmarked) [Compound 77] | 78% | 56% |
| O=[N+]([O-])C1=C2N(Cc3ccc(Cl)nc3)CCCN2C(OC(C(F)(F)F)C(F)(F)F)CC1 (centres unmarked) [Compound 78] | 51% | 68% |
| CCCCOC1CCC([N+](=O)[O-])=C2N(Cc3ccc(Cl)nc3)CCCN21 (centres unmarked) [Compound 79] | 61% | 52% |
| CC(C)COC1CCC([N+](=O)[O-])=C2N(Cc3ccc(Cl)nc3)CCCN21 (centres unmarked) [Compound 80] | 34% | 23% |
| CCC(C)OC1CCC([N+](=O)[O-])=C2N(Cc3ccc(Cl)nc3)CCCN21 (centres unmarked) [Compound 81] | 8% | 12% |
| CC(C)(C)OC1CCC([N+](=O)[O-])=C2N(Cc3ccc(Cl)nc3)CCCN21 (centres unmarked) [Compound 82] | 34% | 12% |
| COCCOC1CCC([N+](=O)[O-])=C2N(Cc3ccc(Cl)nc3)CCCN21 (centres unmarked) [Compound 83] | 26% | 38% |
| CCOCCOC1CCC([N+](=O)[O-])=C2N(Cc3ccc(Cl)nc3)CCCN21 (centres unmarked) [Compound 84] | 39% | 26% |
| O=[N+]([O-])C1=C2N(Cc3cnc(Cl)s3)CCCN2C(O)CC1 (centres unmarked) [Compound 85] | 23% | 12% |
| COC1CCC([N+](=O)[O-])=C2N(Cc3cnc(Cl)s3)CCCN21 (centres unmarked) [Compound 86] | 100% | 100% |
| CCOC1CCC([N+](=O)[O-])=C2N(Cc3cnc(Cl)s3)CCCN21 (centres unmarked) [Compound 87] | 100% | 100% |
| O=[N+]([O-])C1=C2N(Cc3cnc(Cl)s3)CCCN2C(OCCCl)CC1 (centres unmarked) [Compound 88] | 34% | 23% |
| O=[N+]([O-])C1=C2N(Cc3cnc(Cl)s3)CCCN2C(OCC(F)(F)F)CC1 (centres unmarked) [Compound 89] | 100% | 100% |
| CCCOC1CCC([N+](=O)[O-])=C2N(Cc3cnc(Cl)s3)CCCN21 (centres unmarked) [Compound 90] | 51% | 34% |
| CC(C)OC1CCC([N+](=O)[O-])=C2N(Cc3cnc(Cl)s3)CCCN21 (centres unmarked) [Compound 91] | 71% | 69% |

| Compound | mortality (%) (500 ppm) Nilaparvata lugens [1] | mortality (%) (500 ppm) Aphis [2] |
| --- | --- | --- |
| O=[N+]([O-])C1=C2N(Cc3cnc(Cl)s3)CCCN2C(OC(C(F)(F)F)C(F)(F)F)CC1 (centres unmarked) [Compound 92] | 5% | 6% |
| CCCCOC1CCC([N+](=O)[O-])=C2N(Cc3cnc(Cl)s3)CCCN21 (centres unmarked) [Compound 93] | 8% | 7% |
| CC(C)COC1CCC([N+](=O)[O-])=C2N(Cc3cnc(Cl)s3)CCCN21 (centres unmarked) [Compound 94] | 3% | 8% |
| CCC(C)OC1CCC([N+](=O)[O-])=C2N(Cc3cnc(Cl)s3)CCCN21 (centres unmarked) [Compound 95] | 8% | 4% |
| CC(C)(C)OC1CCC([N+](=O)[O-])=C2N(Cc3cnc(Cl)s3)CCCN21 (centres unmarked) [Compound 96] | 100% | 80% |
| COCCOC1CCC([N+](=O)[O-])=C2N(Cc3cnc(Cl)s3)CCCN21 (centres unmarked) [Compound 97] | 100% | 78% |
| CCOCCOC1CCC([N+](=O)[O-])=C2N(Cc3cnc(Cl)s3)CCCN21 (centres unmarked) [Compound 98] | 7% | 4% |
| O=[N+]([O-])C1=C2N(CC3CCOC3)CCCN2C(O)CC1 (centres unmarked) [Compound 99] | 7% | 6% |
| COC1CCC([N+](=O)[O-])=C2N(CC3CCOC3)CCCN21 (centres unmarked) [Compound 100] | 8% | 3% |
| CCOC1CCC([N+](=O)[O-])=C2N(CC3CCOC3)CCCN21 (centres unmarked) [Compound 101] | 90% | 76% |
| O=[N+]([O-])C1=C2N(CC3CCOC3)CCCN2C(OCCCl)CC1 (centres unmarked) [Compound 102] | 89% | 0% |
| O=[N+]([O-])C1=C2N(CC3CCOC3)CCCN2C(OCC(F)(F)F)CC1 (centres unmarked) [Compound 103] | 100% | 6% |
| CCCOC1CCC([N+](=O)[O-])=C2N(CC3CCOC3)CCCN21 (centres unmarked) [Compound 104] | 24% | 3% |
| CC(C)OC1CCC([N+](=O)[O-])=C2N(CC3CCOC3)CCCN21 (centres unmarked) [Compound 105] | 98% | 10% |
| CCCCOC1CCC([N+](=O)[O-])=C2N(CC3CCOC3)CCCN21 (centres unmarked) [Compound 107] | 0% | 7% |
| CC(C)COC1CCC([N+](=O)[O-])=C2N(CC3CCOC3)CCCN21 (centres unmarked) [Compound 108] | 9% | 1% |
| CCC(C)OC1CCC([N+](=O)[O-])=C2N(CC3CCOC3)CCCN21 (centres unmarked) [Compound 109] | 10% | 2% |
| CC(C)(C)OC1CCC([N+](=O)[O-])=C2N(CC3CCOC3)CCCN21 (centres unmarked) [Compound 110] | 98% | 67% |
| O=[N+]([O-])C1=C2N(Cc3ccc(Cl)nc3)CCN2C(Oc2ccccc2)CC1 (centres unmarked) [Compound 112] | 75% | 38% |
| CC(=O)OC1CCC([N+](=O)[O-])=C2N(Cc3ccc(Cl)nc3)CCN21 (centres unmarked) [Compound 113] | 77% | 45% |
| CCC(=O)OC1CCC([N+](=O)[O-])=C2N(Cc3ccc(Cl)nc3)CCN21 (centres unmarked) [Compound 114] | 88% | 56% |
| O=C(OC1CCC([N+](=O)[O-])=C2N(Cc3ccc(Cl)nc3)CCN21)C(Cl)(Cl)Cl (centres unmarked) [Compound 115] | 33% | 0% |
| O=C(OC1CCC([N+](=O)[O-])=C2N(Cc3ccc(Cl)nc3)CCN21)C(F)(F)F (centres unmarked) [Compound 116] | 45% | 2% |
| CS(=O)(=O)OC1CCC([N+](=O)[O-])=C2N(Cc3ccc(Cl)nc3)CCN21 (centres unmarked) [Compound 117] | 65% | 19% |
| O=[N+]([O-])C1=C2N(Cc3ccc(Cl)nc3)CCN2C(OS(=O)(=O)C(F)(F)F)CC1 (centres unmarked) [Compound 118] | 100% | 81% |
| O=[N+]([O-])C1=C2N(Cc3ccc(Cl)nc3)CCN2C(OS(=O)(=O)c2ccccc2)CC1 (centres unmarked) [Compound 119] | 23% | 3% |
